Experimental findings from patent US8680290B2, “Isoxazoline derivatives and their use as herbicides” (Syngenta Limited, priority 2004, dated 2014) are described below.

The subject of assay [1] is Monocotyledonous and dicotyledonous test plants. Put plainly: Example B1 herbicidal action, application pre-emergence (Table B1b). It is filed as in vivo. To be noted: 250 g/ha, evaluated after 4 weeks. The essentials: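 Compounds sprayed as aqueous solution from acetone/Emulsogen EL/NMP/dipropylene glycol monomethyl ether/X-77 formulation onto soil right after sowing (pre-emergence) or onto 8–9-day plants (post-emergence); greenhouse-grown. Damage scored 0 (none) to 10 (total) after 4 weeks pre- or 3 weeks post-emergence.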

Assay [2] shares this test system. Kind of assay: Example B1 herbicidal action, application post-emergence (Table B1a). It is filed as in vivo. To be noted: 250 g/ha, evaluated after 3 weeks, scale 0-10. As to the method:
Monocotyledonous and dicotyledonous test plants were sown in seed trays in standard soil. Immediately after sowing (pre-emergence) or after 8 to 9 days cultivation (post-emergence), the test compounds were applied by spraying in the form of an aqueous solution derived from the formulation of the technical active ingredient in 0.6 ml acetone and 45 ml formulation solution containing 10.6% Emulsogen EL (CAS RN 61791-12-6), 42.2% N-methylpyrrolidone, 42.2% dipropylene glycol monomethyl ether (CAS RN 34590-94-8) and 0.2% X-77 (CAS RN 11097-66-8). The test plants were then grown in a greenhouse under optimum conditions. After a test duration of 3 weeks (post-emergence) or 4 weeks (pre-emergence), the test was evaluated (10=total damage to plant, 0=no damage to plant).

Consider `CC1(C)CC(S(=O)(=O)C(F)(F)c2ccccc2C#N)=NO1` [1.72], for which, in assay [1], the “herbicidal action (damage rating 0-10), Amaranthus” value (from here on “herbicidal action … Amaranthus”) worked out at 10; the “herbicidal action (damage rating 0-10), Digitaria” value (“herbicidal action … Digitaria” for short) was found to be 10; the “herbicidal action (damage rating 0-10), Panicum” value (“herbicidal action … Panicum” below) turned out to be 10; the “herbicidal action (damage rating 0-10), Setaria” value (“herbicidal action … Setaria” for short) is recorded as 10. The “herbicidal action (damage rating 0-10), Sida” value (from here on “herbicidal action … Sida”) in assay [1] is on record as 6. In assay [2], the “herbicidal damage rating, Abutilon” value was 3; the “herbicidal damage rating, Amaranthus” value was 8; the “herbicidal damage rating, Digitaria” value amounted to 7; the “herbicidal damage rating, Panicum” value is 7. In assay [2], the “herbicidal damage rating, Setaria” value turned out to be 8 and the “herbicidal damage rating, Sida” value was found to be 0.
Take `COc1cc(OC)cc(C(F)(F)S(=O)(=O)C2=NOC(C)(C)C2)c1` [1.76]: in assay [1], the “herbicidal action … Amaranthus” value is 9; the “herbicidal action … Digitaria” value was found to be 9; the “herbicidal action … Panicum” value is 10; the “herbicidal action … Setaria” value came out at 8. Besides, in assay [1], the “herbicidal action … Sida” value came to 3. In assay [2], the “herbicidal damage rating, Abutilon” value is listed as 5; the “herbicidal damage rating, Amaranthus” value worked out at 3; the “herbicidal damage rating, Panicum” value worked out at 5; the “herbicidal damage rating, Setaria” value stood at 5. The “herbicidal damage rating, Sida” value in assay [2] is recorded as 5.
Turning to `CC1(C)CC(S(=O)(=O)C(F)(F)c2ccccc2)=NO1` [1.77], in assay [1], the “herbicidal action … Amaranthus” value amounted to 10; the “herbicidal action … Digitaria” value is 10; the “herbicidal action … Panicum” value was found to be 10; the “herbicidal action … Setaria” value was 10. Moreover, the “herbicidal action … Sida” value in assay [1] was 7. Also, in assay [2], the “herbicidal damage rating, Abutilon” value was 5; the “herbicidal damage rating, Amaranthus” value was 0; the “herbicidal damage rating, Digitaria” value worked out at 8; the “herbicidal damage rating, Panicum” value was 5. In addition, in assay [2], the “herbicidal damage rating, Setaria” value was 6 and the “herbicidal damage rating, Sida” value worked out at 3.
On to `Cc1ccccc1C(F)(F)S(=O)(=O)C1=NOC(C)(C)C1` [1.92], for which, in assay [1], the “herbicidal action … Amaranthus” value was determined as 10; the “herbicidal action … Digitaria” value amounted to 10; the “herbicidal action … Panicum” value came out at 10; the “herbicidal action … Setaria” value is listed as 10. In addition, the “herbicidal action … Sida” value in assay [1] is listed as 8. Besides, in assay [2], the “herbicidal damage rating, Abutilon” value was 5; the “herbicidal damage rating, Amaranthus” value came to 3; the “herbicidal damage rating, Digitaria” value is 8; the “herbicidal damage rating, Panicum” value was 5. Besides, in assay [2], the “herbicidal damage rating, Setaria” value is reported as 7 and the “herbicidal damage rating, Sida” value is given as 7.
For the compound `CC1(C)CC(S(=O)(=O)C(F)(F)c2ccccc2F)=NO1` [1.94], in assay [1], the “herbicidal action … Amaranthus” value was 10; the “herbicidal action … Digitaria” value is listed as 10; the “herbicidal action … Panicum” value was found to be 10; the “herbicidal action … Setaria” value is given as 10. Moreover, in assay [1], the “herbicidal action … Sida” value is reported as 8. Moreover, in assay [2], the “herbicidal damage rating, Abutilon” value is listed as 5; the “herbicidal damage rating, Amaranthus” value was determined as 7; the “herbicidal damage rating, Digitaria” value amounted to 8; the “herbicidal damage rating, Panicum” value is listed as 7. In addition, in assay [2], the “herbicidal damage rating, Setaria” value turned out to be 8 and the “herbicidal damage rating, Sida” value is given as 0.
Turning to `CC1(C)CC(S(=O)(=O)C(F)(Cl)c2ccccc2[S+]([O-])C(F)(F)F)=NO1` (stereo not shown) [1.97], in assay [1], the “herbicidal action … Amaranthus” value was determined as 8; the “herbicidal action … Digitaria” value was determined as 10; the “herbicidal action … Panicum” value is recorded as 10; the “herbicidal action … Setaria” value is 9. Also, the “herbicidal action … Sida” value in assay [1] stood at 0. In assay [2], the “herbicidal damage rating, Abutilon” value is reported as 4; the “herbicidal damage rating, Amaranthus” value was 5; the “herbicidal damage rating, Digitaria” value worked out at 8; the “herbicidal damage rating, Panicum” value is listed as 5. In assay [2], the “herbicidal damage rating, Setaria” value was 7 and the “herbicidal damage rating, Sida” value turned out to be 0.
Turning to `Cc1ccc(F)c(C(Br)S(=O)(=O)C2=NOC(C)(C)C2)c1F` (stereo not shown) [1.102], in assay [1], the “herbicidal action … Amaranthus” value came to 8; the “herbicidal action … Digitaria” value was determined as 10; the “herbicidal action … Panicum” value was found to be 10; the “herbicidal action … Setaria” value amounted to 9. Also, the “herbicidal action … Sida” value in assay [1] is 2. Besides, in assay [2], the “herbicidal damage rating, Abutilon” value came to 0; the “herbicidal damage rating, Amaranthus” value worked out at 0; the “herbicidal damage rating, Digitaria” value is given as 8; the “herbicidal damage rating, Panicum” value stood at 5. For the same compound, in assay [2], the “herbicidal damage rating, Setaria” value worked out at 4 and the “herbicidal damage rating, Sida” value came out at 2.
Consider `COc1ccccc1C(F)S(=O)(=O)C1=NOC(C)(C)C1` (stereo not shown) [1.104], for which, in assay [1], the “herbicidal action … Amaranthus” value was found to be 0; the “herbicidal action … Digitaria” value was 9; the “herbicidal action … Panicum” value was determined as 10; the “herbicidal action … Setaria” value is recorded as 8. The “herbicidal action … Sida” value in assay [1] is on record as 3. Moreover, in assay [2], the “herbicidal damage rating, Abutilon” value was determined as 3; the “herbicidal damage rating, Amaranthus” value is listed as 0; the “herbicidal damage rating, Digitaria” value was 8; the “herbicidal damage rating, Panicum” value worked out at 7. Also, in assay [2], the “herbicidal damage rating, Setaria” value came out at 7 and the “herbicidal damage rating, Sida” value is on record as 2.
As to `Cc1ccc(F)c(C(F)S(=O)(=O)C2=NOC(C)(C)C2)c1F` (stereo not shown) [1.105], in assay [1], the “herbicidal action … Amaranthus” value turned out to be 10; the “herbicidal action … Digitaria” value is reported as 8; the “herbicidal action … Panicum” value worked out at 10; the “herbicidal action … Setaria” value is given as 10. Also, in assay [1], the “herbicidal action … Sida” value was found to be 7. Further, in assay [2], the “herbicidal damage rating, Abutilon” value was determined as 2; the “herbicidal damage rating, Amaranthus” value worked out at 5; the “herbicidal damage rating, Digitaria” value was determined as 8; the “herbicidal damage rating, Panicum” value came to 5. Besides, in assay [2], the “herbicidal damage rating, Setaria” value turned out to be 4 and the “herbicidal damage rating, Sida” value amounted to 7.
On to `COc1ccccc1C(F)(F)S(=O)(=O)C1=NOC(C)(C)C1` [1.107], for which, in assay [1], the “herbicidal action … Amaranthus” value turned out to be 9; the “herbicidal action … Digitaria” value came to 7; the “herbicidal action … Panicum” value is listed as 9; the “herbicidal action … Setaria” value was 10. The “herbicidal action … Sida” value in assay [1] was 0. Moreover, in assay [2], the “herbicidal damage rating, Abutilon” value turned out to be 4; the “herbicidal damage rating, Amaranthus” value was 0; the “herbicidal damage rating, Digitaria” value stood at 8; the “herbicidal damage rating, Panicum” value was found to be 7. Besides, in assay [2], the “herbicidal damage rating, Setaria” value is 5 and the “herbicidal damage rating, Sida” value is on record as 5.
As to `Cc1ccc(F)c(C(F)(F)S(=O)(=O)C2=NOC(C)(C)C2)c1F` [1.108], in assay [1], the “herbicidal action … Amaranthus” value was 10; the “herbicidal action … Digitaria” value is 10; the “herbicidal action … Panicum” value is on record as 10; the “herbicidal action … Setaria” value is 10. In addition, the “herbicidal action … Sida” value in assay [1] is listed as 9. Also, in assay [2], the “herbicidal damage rating, Abutilon” value worked out at 7; the “herbicidal damage rating, Amaranthus” value was determined as 8; the “herbicidal damage rating, Digitaria” value is reported as 8; the “herbicidal damage rating, Panicum” value amounted to 5. Also, in assay [2], the “herbicidal damage rating, Setaria” value is recorded as 5 and the “herbicidal damage rating, Sida” value turned out to be 8.
Turning to `CC1(C)CC(S(=O)(=O)C(F)(F)c2cc(F)cc3c2OCOC3)=NO1` [1.109], in assay [1], the “herbicidal action … Amaranthus” value amounted to 10; the “herbicidal action … Digitaria” value was determined as 10; the “herbicidal action … Panicum” value is on record as 10; the “herbicidal action … Setaria” value was 9. Besides, the “herbicidal action … Sida” value in assay [1] is 0. In addition, in assay [2], the “herbicidal damage rating, Abutilon” value came out at 6; the “herbicidal damage rating, Amaranthus” value worked out at 5; the “herbicidal damage rating, Digitaria” value is on record as 6; the “herbicidal damage rating, Panicum” value came out at 5. Moreover, in assay [2], the “herbicidal damage rating, Setaria” value came out at 3 and the “herbicidal damage rating, Sida” value stood at 2.
Consider `CC1(C)CC(S(=O)(=O)C(F)(F)c2cc(F)ccc2F)=NO1` [1.114], for which, in assay [1], the “herbicidal action … Amaranthus” value was determined as 10; the “herbicidal action … Digitaria” value is 10; the “herbicidal action … Panicum” value is reported as 10; the “herbicidal action … Setaria” value is given as 10. For the same compound, the “herbicidal action … Sida” value in assay [1] turned out to be 9. In addition, in assay [2], the “herbicidal damage rating, Abutilon” value was determined as 3; the “herbicidal damage rating, Amaranthus” value is recorded as 3; the “herbicidal damage rating, Digitaria” value amounted to 8; the “herbicidal damage rating, Panicum” value is given as 3. In addition, in assay [2], the “herbicidal damage rating, Setaria” value was found to be 8 and the “herbicidal damage rating, Sida” value was found to be 2.
